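Grown in 96-well plates, cells were treated for 48 hours with each compound at five concentrations. Insufficient inhibition: endpoint recorded as highest concentration tested. GI50 = concentration required for 50% inhibition of growth.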 Calls of active or inactive are those of the source. No stated cut-off is given here; in the data, active = GI50 up to about 1.1 µM and inactive = higher.
How the values were obtained:
Assay in all cases: growth of human tumour cells (NCI), 48 h
[1] = system: 786-0
[2] = system: A498
[3] = system: A549
[4] = system: ACHN
[5] = system: BT-549
[6] = system: CAKI-1
[7] = system: CCRF-CEM
[8] = system: COLO 205
[9] = system: DU-145
[10] = system: EKVX
[11] = system: HCC 2998
[12] = system: HCT-116
[13] = system: HCT-15
[14] = system: HL-60
[15] = system: HOP-62
[16] = system: HOP-92
[17] = system: HT-29
[18] = system: Hs-578T
[19] = system: IGROV-1
[20] = system: K562
[21] = system: KM12
[22] = system: LOX IMVI
[23] = system: M14
[24] = system: MCF7
[25] = system: MDA-MB-231
[26] = system: MDA-MB-435
[27] = system: MDA-N
[28] = system: MOLT-4
[29] = system: Malme-3M
[30] = system: NCI-H226
[31] = system: NCI-H23
[32] = system: NCI-H460
[33] = system: NCI-H522
[34] = system: NCI/ADR-RES
[35] = system: OVCAR-3
[36] = system: OVCAR-4
[37] = system: OVCAR-5
[38] = system: OVCAR-8
[39] = system: PC-3
[40] = system: RPMI-8226
[41] = system: RXF 393
[42] = system: SF-268
[43] = system: SF-295
[44] = system: SF-539
[45] = system: SK-MEL-28
[46] = system: SK-MEL-2
[47] = system: SK-MEL-5
[48] = system: SK-OV-3
[49] = system: SN12C
[50] = system: SNB-19
[51] = system: SNB-75
[52] = system: SR
[53] = system: SW-620
[54] = system: T47D
[55] = system: TK-10
[56] = system: U-251
[57] = system: UACC-257
[58] = system: UACC-62
[59] = system: UO-31

## O=C(O)c1cc2c(cc1CC(Cc1ccc3c(c1)CCCC3)C(=O)O)CCCC2 (stereo not given)
[1]
  GI50: > 100 µM (inactive)
[2]
  GI50: > 100 µM (inactive)
[3]
  GI50: > 100 µM (inactive)
[4]
  GI50: 56.5 µM (inactive)
[5]
  GI50: 59.2 µM (inactive)
[6]
  GI50: > 100 µM (inactive)
[7]
  GI50: 67.5 µM (inactive)
[8]
  GI50: > 100 µM (inactive)
[9]
  GI50: > 100 µM (inactive)
[10]
  GI50: 56 µM (inactive)
[11]
  GI50: 32.9 µM (inactive)
[12]
  GI50: > 100 µM (inactive)
[13]
  GI50: 64.4 µM
[14]
  GI50: 99.8 µM (inactive)
[15]
  GI50: > 100 µM (inactive)
[16]
  GI50: 83 µM (inactive)
[17]
  GI50: > 100 µM (inactive)
[18]
  GI50: 90.6 µM (inactive)
[19]
  GI50: > 100 µM (inactive)
[20]
  GI50: > 100 µM (inactive)
[21]
  GI50: > 100 µM (inactive)
[22]
  GI50: 94.4 µM (inactive)
[23]
  GI50: > 100 µM (inactive)
[24]
  GI50: 38.2 µM (inactive)
[25]
  GI50: > 100 µM (inactive)
[26]
  GI50: > 100 µM (inactive)
[27]
  GI50: > 100 µM (inactive)
[28]
  GI50: 59.8 µM (inactive)
[29]
  GI50: > 100 µM (inactive)
[30]
  GI50: 54.3 µM (inactive)
[31]
  GI50: > 100 µM (inactive)
[32]
  GI50: > 100 µM (inactive)
[33]
  GI50: 31.2 µM (inactive)
[34]
  GI50: 32.8 µM (inactive)
[35]
  GI50: > 100 µM (inactive)
[36]
  GI50: < 0.01 µM (active)
[37]
  GI50: > 100 µM (inactive)
[38]
  GI50: > 100 µM (inactive)
[39]
  GI50: > 100 µM (inactive)
[40]
  GI50: 63.2 µM (inactive)
[41]
  GI50: 41.5 µM (inactive)
[42]
  GI50: 39.4 µM (inactive)
[43]
  GI50: > 100 µM (inactive)
[44]
  GI50: 34.4 µM (inactive)
[45]
  GI50: > 100 µM (inactive)
[46]
  GI50: > 100 µM (inactive)
[47]
  GI50: > 100 µM (inactive)
[48]
  GI50: > 100 µM (inactive)
[49]
  GI50: > 100 µM (inactive)
[50]
  GI50: 60 µM (inactive)
[51]
  GI50: > 100 µM (inactive)
[52]
  GI50: > 100 µM (inactive)
[53]
  GI50: > 100 µM (inactive)
[54]
  GI50: 88.1 µM (inactive)
[55]
  GI50: > 100 µM (inactive)
[56]
  GI50: > 100 µM (inactive)
[57]
  GI50: 44.6 µM (inactive)
[58]
  GI50: > 100 µM (inactive)
[59]
  GI50: > 100 µM (inactive)

## Nc1nc(N)c2cc(-c3ccccc3)cnc2n1
[1]
  GI50: 9.89 µM (inactive)
[2]
  GI50: 14.9 µM (inactive)
[3]
  GI50: 9.44 µM (inactive)
[4]
  GI50: 12.9 µM (inactive)
[5]
  GI50: 16.6 µM (inactive)
[6]
  GI50: 16 µM (inactive)
[7]
  GI50: 20.1 µM (inactive)
[8]
  GI50: 14.3 µM (inactive)
[9]
  GI50: > 10 µM (inactive)
[10]
  GI50: 16.9 µM (inactive)
[11]
  GI50: 33 µM (inactive)
[12]
  GI50: 4.66 µM (inactive)
[13]
  GI50: 27.4 µM
[14]
  GI50: 13.3 µM (inactive)
[15]
  GI50: 17 µM (inactive)
[16]
  GI50: 12.2 µM (inactive)
[17]
  GI50: 8.55 µM (inactive)
[18]
  GI50: 20.2 µM (inactive)
[19]
  GI50: 12.9 µM (inactive)
[20]
  GI50: 3.36 µM (inactive)
[21]
  GI50: 16.5 µM (inactive)
[22]
  GI50: 12.4 µM (inactive)
[23]
  GI50: 12.9 µM (inactive)
[24]
  GI50: 16.3 µM (inactive)
[25]
  GI50: 7.89 µM (inactive)
[26]
  GI50: > 10 µM (inactive)
[27]
  GI50: 9.86 µM (inactive)
[28]
  GI50: 9.89 µM (inactive)
[29]
  GI50: 8.99 µM (inactive)
[30]
  GI50: 16.5 µM (inactive)
[31]
  GI50: 12.9 µM (inactive)
[32]
  GI50: 10.8 µM (inactive)
[33]
  GI50: 21.6 µM (inactive)
[34]
  GI50: 24.4 µM (inactive)
[35]
  GI50: 18.2 µM (inactive)
[36]
  GI50: 13.9 µM (inactive)
[37]
  GI50: 14.6 µM (inactive)
[38]
  GI50: 15.4 µM (inactive)
[39]
  GI50: 8 µM (inactive)
[40]
  GI50: 16.6 µM (inactive)
[41]
  GI50: 8.65 µM (inactive)
[42]
  GI50: 2.75 µM (inactive)
[43]
  GI50: 17 µM (inactive)
[44]
  GI50: 14.7 µM (inactive)
[45]
  GI50: 17.7 µM (inactive)
[46]
  GI50: 33 µM (inactive)
[47]
  GI50: 10 µM (inactive)
[48]
  GI50: 81.1 µM (inactive)
[49]
  GI50: 12.2 µM (inactive)
[50]
  GI50: 18.2 µM (inactive)
[51]
  GI50: 3.61 µM (inactive)
[52]
  GI50: 6.18 µM (inactive)
[53]
  GI50: 9.84 µM (inactive)
[54]
  GI50: 36.8 µM (inactive)
[55]
  GI50: 16.3 µM (inactive)
[56]
  GI50: 15.1 µM (inactive)
[57]
  GI50: 14.2 µM (inactive)
[59]
  GI50: 13 µM (inactive)

## CCC1=NC(N/N=C/c2ccccc2O)=N/C1=C\c1ccccc1O
[1]
  GI50: 6.76 µM (inactive)
[2]
  GI50: 26.7 µM (inactive)
[3]
  GI50: 12.9 µM (inactive)
[4]
  GI50: 4.11 µM (inactive)
[5]
  GI50: 12.1 µM (inactive)
[6]
  GI50: 19.6 µM (inactive)
[7]
  GI50: 3.94 µM (inactive)
[8]
  GI50: 13.3 µM (inactive)
[9]
  GI50: 18.2 µM (inactive)
[10]
  GI50: 10.2 µM (inactive)
[11]
  GI50: 10.2 µM (inactive)
[12]
  GI50: 7.59 µM (inactive)
[13]
  GI50: 2.07 µM
[14]
  GI50: 4.53 µM (inactive)
[15]
  GI50: 8.55 µM (inactive)
[16]
  GI50: 21.1 µM (inactive)
[17]
  GI50: 4.81 µM (inactive)
[18]
  GI50: 23.9 µM (inactive)
[19]
  GI50: 11.5 µM (inactive)
[20]
  GI50: 12.2 µM (inactive)
[21]
  GI50: 17 µM (inactive)
[22]
  GI50: 5.61 µM (inactive)
[23]
  GI50: 10.1 µM (inactive)
[24]
  GI50: 5.52 µM (inactive)
[25]
  GI50: 36.3 µM (inactive)
[26]
  GI50: 13.3 µM (inactive)
[27]
  GI50: 17 µM (inactive)
[28]
  GI50: 6.56 µM (inactive)
[29]
  GI50: 12.4 µM (inactive)
[30]
  GI50: 22.1 µM (inactive)
[31]
  GI50: 14.4 µM (inactive)
[32]
  GI50: 2.57 µM (inactive)
[33]
  GI50: 6.43 µM (inactive)
[34]
  GI50: 2.68 µM (inactive)
[35]
  GI50: 2.89 µM (inactive)
[36]
  GI50: 5.6 µM (inactive)
[37]
  GI50: 26.7 µM (inactive)
[38]
  GI50: 8.57 µM (inactive)
[39]
  GI50: 15.5 µM (inactive)
[40]
  GI50: 12.9 µM (inactive)
[41]
  GI50: 18.3 µM (inactive)
[42]
  GI50: 4.98 µM (inactive)
[43]
  GI50: 7.69 µM (inactive)
[45]
  GI50: 23.7 µM (inactive)
[46]
  GI50: 12.6 µM (inactive)
[47]
  GI50: 19.5 µM (inactive)
[48]
  GI50: 12.4 µM (inactive)
[49]
  GI50: 21.3 µM (inactive)
[50]
  GI50: 14.6 µM (inactive)
[51]
  GI50: 17.5 µM (inactive)
[52]
  GI50: 27.9 µM (inactive)
[53]
  GI50: 7.5 µM (inactive)
[54]
  GI50: 12.1 µM (inactive)
[55]
  GI50: 11.2 µM (inactive)
[56]
  GI50: 19.3 µM (inactive)
[57]
  GI50: 14.8 µM (inactive)
[58]
  GI50: 9.79 µM (inactive)
[59]
  GI50: 2.7 µM (inactive)

Source: ChEMBL document CHEMBL1201862, “PubChem BioAssay data set” (2004)
